This is an account of results in US12509459B2, “Inhibitors of NLRP3 inflammasome” (BioAge Labs, Inc., priority 2024, dated 2025).

Each structure is given as a SMILES string.

Chain of NLRP3 (Q96P20 whole entry): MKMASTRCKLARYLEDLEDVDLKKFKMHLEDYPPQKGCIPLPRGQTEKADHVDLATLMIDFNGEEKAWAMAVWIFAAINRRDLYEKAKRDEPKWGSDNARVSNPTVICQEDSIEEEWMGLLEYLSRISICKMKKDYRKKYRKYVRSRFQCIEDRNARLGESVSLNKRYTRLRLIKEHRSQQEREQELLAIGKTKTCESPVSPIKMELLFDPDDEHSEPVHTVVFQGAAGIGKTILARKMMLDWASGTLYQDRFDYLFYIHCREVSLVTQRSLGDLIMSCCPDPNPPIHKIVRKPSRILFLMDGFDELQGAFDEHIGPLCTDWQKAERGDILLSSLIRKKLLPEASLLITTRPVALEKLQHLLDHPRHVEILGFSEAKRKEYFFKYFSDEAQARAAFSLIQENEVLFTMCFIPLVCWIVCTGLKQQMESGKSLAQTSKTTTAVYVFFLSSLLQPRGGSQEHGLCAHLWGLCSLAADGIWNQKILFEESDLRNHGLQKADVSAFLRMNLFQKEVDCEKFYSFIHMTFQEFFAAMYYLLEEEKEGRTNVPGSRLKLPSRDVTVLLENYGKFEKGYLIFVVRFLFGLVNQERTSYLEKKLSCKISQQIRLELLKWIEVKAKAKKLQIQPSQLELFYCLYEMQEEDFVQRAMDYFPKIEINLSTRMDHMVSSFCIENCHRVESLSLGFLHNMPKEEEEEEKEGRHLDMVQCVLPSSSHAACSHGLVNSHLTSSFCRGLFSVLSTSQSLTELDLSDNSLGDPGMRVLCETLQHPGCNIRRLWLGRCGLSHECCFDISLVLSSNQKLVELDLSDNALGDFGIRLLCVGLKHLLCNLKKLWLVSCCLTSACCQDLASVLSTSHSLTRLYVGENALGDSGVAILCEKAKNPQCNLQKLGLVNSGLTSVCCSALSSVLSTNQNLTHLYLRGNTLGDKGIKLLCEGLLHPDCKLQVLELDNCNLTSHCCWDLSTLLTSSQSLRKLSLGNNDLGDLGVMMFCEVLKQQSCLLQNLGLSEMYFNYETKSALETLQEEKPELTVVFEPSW

The first assay has as its system DIO mice. Description: Diet-induced obesity (DIO) mouse model. To be noted: Compound 096/211 study, FIGS. 14A and 14B. In kind it is in vivo.
As to `[2H]C([2H])([2H])N(CC[C@H](c1cncc2cn[nH]c12)N(C)C(=O)c1ccc(-c2cccc(F)c2)c(OCC)c1)C([2H])([2H])[2H]` [Compound 211], the “body weight of DIO mice” value was “dose-dependent effect on reducing body weight”.

Still in this assay, the particulars now being: DIO mice, 50 mpk, po, qd.
On to `[2H]C([2H])([2H])N(CC[C@H](c1cncc2cn[nH]c12)N(C)C(=O)c1ccc(-c2cccc(F)c2)c(OCC)c1)C([2H])([2H])[2H]` [Compound 211], for which the “Day 14 BW % change vs. baseline” value was −14.9%.

Still in this assay, the particulars now being: DIO mice, Compound 096/211 study, FIG. 14.
For `[2H]C([2H])([2H])N(CC[C@H](c1cncc2cn[nH]c12)N(C)C(=O)c1ccc(-c2cccc(F)c2)c(OCC)c1)C([2H])([2H])[2H]` [Compound 211], the food consumption result was “dose-dependent effect on reducing food consumption”.

Still in this assay, the particulars now being: DIO mice, Compound 096/211 study, FIG. 15.
In the case of `[2H]C([2H])([2H])N(CC[C@H](c1cncc2cn[nH]c12)N(C)C(=O)c1ccc(-c2cccc(F)c2)c(OCC)c1)C([2H])([2H])[2H]` [Compound 211], the fat mass entry was “caused a change in fat mass”.

Staying with this assay, now noted: summary; comparable to the effect of Semaglutide.
In the case of `[2H]C([2H])([2H])N(CC[C@H](c1cncc2cn[nH]c12)N(C)C(=O)c1ccc(-c2cccc(F)c2)c(OCC)c1)C([2H])([2H])[2H]` [Compound 211], the “body weight of high fat DIO mice” value is recorded as “significantly reduced” and the “food consumption of high fat DIO mice” value was “significantly reduced”.

A further assay concerns the target NLRP3 (Homo sapiens, UniProt Q96P20). Nature of the assay: THP-1 cell-based NLRP3 activation assay. Also on record: endogenous in cells; host or cells: THP-1 cells (PMA-differentiated, LPS-primed, nigericin-stimulated). To be noted: PMA-differentiated THP-1 cells, LPS 100 ng/mL then 10 μM nigericin. In short, it runs like this: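 After 30 min compound preincubation, inflammasome activation was triggered with 10 μM nigericin (1 h) in LPS-primed (100 ng/mL, 3 h) THP-1 cells differentiated with PMA at 20 nM/24 h or 500 nM/3 h. CellTiter-Glo measured residual cell viability.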
Regarding `[2H]C([2H])([2H])N(CC[C@H](c1cncc2cn[nH]c12)N(C)C(=O)c1ccc(-c2cccc(F)c2)c(OCC)c1)C([2H])([2H])[2H]` [Compound 211], the IC50 (in general, the concentration at which inhibition is half-maximal) is less than 100 nM. In turn, `CCOc1cc(C(=O)N(C)C(CN2CCC(O)C2)c2cncc3cn[nH]c23)ccc1-c1cccc(F)c1` (centres unmarked) [Compound 247] displayed an IC50 of less than 100 nM. `CCOc1cc(C(=O)N(Cc2cncc3cn[nH]c23)[C@H]2C[C@@H](CN)C2)ccc1-c1cccc(F)c1` [Compound 248] registered an IC50 of less than 100 nM.

In the case of `CCOc1cc(C(=O)N(Cc2cncc3cn[nH]c23)[C@H]2C[C@@H](CN(C)C)C2)ccc1-c1cccc(F)c1` [Compound 249], the IC50 is less than 100 nM. Still for that read-out and setting: for `CCOc1cc(C(=O)N(Cc2cccc3cn[nH]c23)[C@H]2C[C@@H](N)C2)ccc1-c1cccc(F)c1` [Compound 250] the value was less than 100 nM; for `CCOc1cc(C(=O)N(Cc2cccc3cn[nH]c23)[C@H]2C[C@@H](N(C)C)C2)ccc1-c1cccc(F)c1` [Compound 251], less than 100 nM; for `CCOc1cc(C(=O)N(Cc2cccc3cn[nH]c23)[C@H]2C[C@@H](NC)C2)ccc1-c1cccc(F)c1` [Compound 252], less than 100 nM. Same read-out and setting: for `CCOc1cc(C(=O)N(Cc2cncc3cn[nH]c23)[C@H]2C[C@@H](N(C)C)C2)ccc1-c1cccc(Cl)c1` [Compound 253] the value was less than 100 nM; for `CCOc1cc(C(=O)N(C)[C@H](CC[N+](C)([O-])CC)c2cncc3cn[nH]c23)ccc1-c1cccc(Cl)c1` (some centres unmarked) [Compound 254], less than 100 nM. Consider `CCOc1cc(C(=O)N(C)[C@H](CC[N+]([O-])(CC)CC)c2cncc3cn[nH]c23)ccc1-c1cccc(Cl)c1` [Compound 255], for which the IC50 was less than 100 nM. `CCOc1cc(C(=O)N(C)[C@H](CN(C)C)c2cccc3cn[nH]c23)ccc1-c1cccc(F)c1` [Compound 256] showed an IC50 of 100 to 500 nM.

On to `CCOc1cc(C(=O)N(C)[C@@H](CN(C)C)c2cccc3cn[nH]c23)ccc1-c1cccc(F)c1` [Compound 257], for which the half-inhibitory concentration (IC50) is less than 100 nM. Same read-out and setting: for `CCOc1cc(C(=O)N(C)C(CN(C)CC)c2cccc3cn[nH]c23)ccc1-c1cccc(F)c1` (centres unmarked) [Compound 258] the value was 100 to 500 nM. With `CCOc1cc(C(=O)N(C)[C@@H](CN(C)CC)c2cccc3cn[nH]c23)ccc1-c1cccc(F)c1` [Compound 259], the half-maximal inhibitory concentration (IC50) was less than 100 nM. `CCOc1cc(C(=O)N(C)[C@H](CN(CC)CC)c2cccc3cn[nH]c23)ccc1-c1cccc(F)c1` [Compound 260] registered an IC50 of 1000 to 15000 nM.

With `CCOc1cc(C(=O)N(C)C(CN(CC)CC)c2cccc3cn[nH]c23)ccc1-c1cccc(F)c1` (centres unmarked) [Compound 261], the 50% inhibitory concentration (IC50) is less than 100 nM.

The compound `CCOc1cc(C(=O)N(C)[C@H](CCN(C)CCO)c2cncc3cn[nH]c23)ccc1-c1cccc(F)c1` [Compound 262] registered an IC50 of less than 100 nM. For `CCOc1cc(C(=O)N(C)[C@H](CCN(C)CCOC)c2cncc3cn[nH]c23)ccc1-c1cccc(F)c1` [Compound 263], the half-inhibitory concentration (IC50) was less than 100 nM. Take `CCOc1cc(C(=O)N(C)C(CN2CCC2)c2cccc3cn[nH]c23)ccc1-c1cccc(F)c1` (centres unmarked) [Compound 264]: the IC50 was less than 100 nM. Compound `CCOc1cc(C(=O)N(Cc2cccc3cn[nH]c23)[C@H]2C[C@@H](NC)C2)ccc1-c1cccc(C#N)c1` [Compound 265] had an IC50 of less than 100 nM.

Compound `CCOc1cc(C(=O)N(Cc2ccc(C)c3cn[nH]c23)[C@H]2C[C@@H](NC)C2)ccc1-c1cccc(F)c1` [Compound 266] showed a concentration for half-maximal inhibition (IC50) of less than 100 nM. In turn, `CCOc1cc(C(=O)N(C)[C@H](c2c[nH]cn2)c2cncc3cn[nH]c23)ccc1-c1cccc(F)c1` [Compound 267] gave an IC50 of 100 to 500 nM.

The compound `CCOc1cc(C(=O)N(Cc2cnc(C)c3cn[nH]c23)[C@H]2C[C@@H](NC)C2)ccc1-c1cccc(Cl)c1` [Compound 277] gave an IC50 of less than 100 nM.

`CCOc1cc(C(=O)N(Cc2cnc(C)c3cn[nH]c23)[C@H]2C[C@@H](NC)C2)ccc1-c1cccc(F)c1` [Compound 278] registered an IC50 of less than 100 nM. In the case of `CCOc1cc(C(=O)N(C)[C@H](CCN(C)C)c2cncc3cn[nH]c23)ccc1-c1cc(F)cc(C#N)c1` [Compound 279], the IC50 is less than 100 nM. On the same count and under the same terms, as for `CCOc1cc(C(=O)N(C)[C@H](CCNC)c2cncc3cn[nH]c23)ccc1-c1cc(F)cc(C#N)c1` [Compound 280], the figure is less than 100 nM. On the same count and under the same terms, for `CN(C(=O)c1ccc(-c2cccc(Cl)c2)c(OC2CC2)c1)[C@H](CCN1CCC1)c1cncc2cn[nH]c12` [Compound 281] the value was 1000 to 15000 nM. `CCOc1cc(C(=O)N(C)[C@@H](c2cccc3cn[nH]c23)C2CN(C)C2)ccc1-c1cccc(Cl)c1` [Compound 282] yielded an IC50 of less than 100 nM.

In the case of `CCOc1cc(C(=O)N(C)[C@H](c2cccc3cn[nH]c23)C2CN(C)C2)ccc1-c1cccc(Cl)c1` [Compound 283], the IC50 is less than 100 nM. On the same count and under the same terms, as for `CCOc1cc(C(=O)N(Cc2ccc(C)c3cn[nH]c23)[C@H]2C[C@@H](N(C)C)C2)ccc1-c1cccc(Cl)c1` [Compound 285], the figure is less than 100 nM. As to `CCOc1cc(C(=O)N(Cc2ccc(C)c3cn[nH]c23)[C@H]2C[C@@H](NC)C2)ccc1-c1cccc(Cl)c1` [Compound 286], the IC50 is less than 100 nM. Consider `CCOc1cc(C(=O)N(Cc2cncc3cn[nH]c23)[C@H]2CC[C@@H]2N)ccc1-c1cccc(Cl)c1` [Compound 287], for which the IC50 lay within 500 to 1000 nM. With `CCOc1cc(C(=O)N(Cc2cncc3cn[nH]c23)[C@H]2CC[C@@H]2N(C)C)ccc1-c1cccc(Cl)c1` [Compound 288], the IC50 is 100 to 500 nM.

In turn, `CCOc1cc(C(=O)N(Cc2cncc3cn[nH]c23)[C@H]2C[C@@H](N)C2)ccc1-c1cccc(C#N)c1` [Compound 289] yielded an IC50 of less than 100 nM. Take `CCOc1cc(C(=O)N(Cc2cncc3cn[nH]c23)[C@H]2C[C@@H](N(C)C)C2)ccc1-c1cccc(C#N)c1` [Compound 290]: the IC50 is less than 100 nM. With `CCOc1cc(C(=O)N(Cc2cncc3cn[nH]c23)[C@H]2C[C@@H](NC)C2)ccc1-c1cccc(C#N)c1` [Compound 291], the IC50 was less than 100 nM. `CCOc1cc(C(=O)N(Cc2cccc3cn[nH]c23)[C@H]2C[C@@H](N)C2)ccc1-c1cccc(C#N)c1` [Compound 292] came in with an IC50 of less than 100 nM. Regarding `CCOc1cc(C(=O)N(Cc2cccc3cn[nH]c23)[C@H]2C[C@@H](N(C)C)C2)ccc1-c1cccc(C#N)c1` [Compound 293], the concentration for half-maximal inhibition (IC50) was less than 100 nM.

Compound `CCOc1cc(C(=O)N(Cc2cncc3cn[nH]c23)[C@H]2CC[C@@H]2N)ccc1-c1cccc(F)c1` [Compound 294] showed an IC50 of 500 to 1000 nM. For the compound `CCOc1cc(C(=O)N(Cc2cncc3cn[nH]c23)[C@H]2CC[C@H]2N)ccc1-c1cccc(Cl)c1` [Compound 295], the IC50 is 100 to 500 nM. Turning to `CCOc1cc(C(=O)N(C)[C@H](CCC2CN(C)C2)c2cccc3cn[nH]c23)ccc1-c1cccc(F)c1` [Compound 297], the IC50 is 100 to 500 nM.

As to `CCOc1cc(C(=O)N(C)[C@H](c2cccc3cn[nH]c23)C2CN(C)C2)ccc1-c1cccc(F)c1` [Compound 298], the IC50 is less than 100 nM. Compound `CCOc1cc(C(=O)N(C)[C@@H](CCN)c2cnc(C)c3cn[nH]c23)ccc1C` [Compound 299] displayed an IC50 of 1000 to 15000 nM. Regarding `CCOc1cc(C(=O)N(Cc2cncc3cn[nH]c23)[C@H]2CC[C@H]2N)ccc1-c1cccc(F)c1` [Compound 300], the IC50 fell in the range of 100 to 500 nM.
